Laboratory results from patent publication US20150126467A1, “USE OF ALGINATE OLIGOMERS TO ENHANCE THE EFFECTS OF ANTIFUNGAL AGENTS” (AlgiIPharma AS, priority 2011, published 2015).
Values after ≈ are worked out from the molar mass of the structure shown. Read-outs that look alike come from different tables or passages of the source.

What was measured:
Type in all cases: cell-based
[1] = system: C. tropicalis T2.2 (oral); test: Robotic MIC assay, Candida strains (Example 2); details: Candida tropicalis, 48 h, Mueller-Hinton broth, read-out: Minimum Inhibitory Concentration (MIC)
Protocol: (§1) A robotic MIC Assay was performed as follows. OligoG CF-5/20 were dissolved in medium (Mueller-Hinton broth or M19 broth depending on experiment) to 1.25 times of the desired assay concentrations (2, 6 and 10%). The antifungal agents under test were dissolved in medium without OligoG CF-5/20 and in medium with OligoG CF-5/20 at a concentration of 1.25 times the highest desired assay concentrations. For experiments where the effect of adding different concentrations of Na^+ was investigated, NaCl was dissolved in medium to the desired concentrations (10, 30 and 50 mM).
(§2) Two-fold serial dilutions of antifungal agents were made in medium with different concentrations of OligoG CF-5/20, and the solutions were placed in four parallel wells in Nunc 384-well micro plates (30 μl per well in Nunc 242757 microplates). A group of 8 wells with no addition of antifungal agents for each OligoG CF-5/20 concentration was included on each microplate as growth reference. To each well in the 384-well assay plates was added 7.5 μl of medium inoculated with a frozen stock culture of Candida albicans (strain CCUG 39343).
(§3) The micro plates were placed in plastic bags and incubated without shaking at 34° C. The optical density at 600 nm in the microwells was measured after approximately 13, 18, 24 and 34 hours of incubation, and the relative growth yield in each well was calculated based on the growth in the reference groups.
(§4) The robotic assay described in Example 1 was employed in this Example. Strains were grown in Mueller-Hinton broth (LAB114 from Lab M Limited) and MIC values (μg ml-1) were determined for each antifungal after incubation for 48 h in the presence of 0, 2, 6 and 10% OligoG CF-5/20 G-fragments. […] OligoG CF-5/20 G-fragments were provided by AlgiPharma AS, Norway.
(§5) Candida strains used were as follows: • C. albicans CCUG 39343 (strain from culture collection) • C. parapsillosis ATCC 22019T (strain from culture collection) • C. krusei 141/03 (candidosis) • C. krusei 249/03(2) (ulceration) • C. lusitaniae 994/01(2) (candidosis) • C. tropicalis 12 (vaginal) • C. tropicalis 75 (vaginal) • C. tropicalis 519468 (urinary) • C. tropicalis 544123 (urinary) • C. tropicalis 250/03 (candidosis) • C. tropicalis AG1 (oral) • C. tropicalis T2.2 (oral)

[2] = system: C. tropicalis 75 (vaginal); test: Robotic MIC assay, Candida strains (Example 2); details: Candida tropicalis, 48 h, Mueller-Hinton broth, read-out: Minimum Inhibitory Concentration (MIC)
Protocol: as §1, §2, §3, §4, §5

[3] = system: C. krusei 249/03(2) (ulceration); test: Robotic MIC assay, Candida strains (Example 2); details: Pichia kudriavzevii, 48 h, Mueller-Hinton broth, read-out: Minimum Inhibitory Concentration (MIC)
Protocol: as §1, §2, §3, §4, §5

[4] = system: C. tropicalis AG1 (oral); test: Robotic MIC assay, Candida strains (Example 2); details: Candida tropicalis, 48 h, Mueller-Hinton broth, read-out: Minimum Inhibitory Concentration (MIC)
Protocol: as §1, §2, §3, §4, §5

[5] = system: C. tropicalis 12 (vaginal); test: Robotic MIC assay, Candida strains (Example 2); details: Candida tropicalis, 48 h, Mueller-Hinton broth, read-out: Minimum Inhibitory Concentration (MIC)
Protocol: as §1, §2, §3, §4, §5

[6] = system: C. tropicalis 250/03 (candidosis); test: Robotic MIC assay, Candida strains (Example 2); details: Candida tropicalis, 48 h, C. tropicalis 250/03 Candiosis, Mueller-Hinton broth, read-out: Minimum Inhibitory Concentration (MIC)
Protocol: as §1, §2, §3, §4, §5

[7] = system: C. tropicalis 519468 (urinary); test: Robotic MIC assay, Candida strains (Example 2); details: Candida tropicalis, 48 h, Mueller-Hinton broth, read-out: Minimum Inhibitory Concentration (MIC)
Protocol: as §1, §2, §3, §4, §5

[8] = system: C. albicans CCUG 39343; test: Robotic MIC assay, Candida strains (Example 2); details: Candida albicans, CCUG39343, 48 h, Mueller-Hinton broth, read-out: Minimum Inhibitory Concentration (MIC)
Protocol: as §1, §2, §3, §4, §5

[9] = system: C. lusitaniae 994/01(2) (candidosis); test: Robotic MIC assay, Candida strains (Example 2); details: Clavispora lusitaniae, 48 h, Mueller-Hinton broth, read-out: Minimum Inhibitory Concentration (MIC)
Protocol: as §1, §2, §3, §4, §5

[10] = system: C. tropicalis 544123 (urinary); test: Robotic MIC assay, Candida strains (Example 2); details: Candida tropicalis, 48 h, Mueller-Hinton broth, read-out: Minimum Inhibitory Concentration (MIC)
Protocol: as §1, §2, §3, §4, §5

[11] = system: C. krusei 141/03 (candidosis); test: Robotic MIC assay, Candida strains (Example 2); details: Pichia kudriavzevii, 48 h, Mueller-Hinton broth, read-out: Minimum Inhibitory Concentration (MIC)
Protocol: as §1, §2, §3, §4, §5

[12] = system: various Aspergillus species; test: Robotic MIC assay, summary over species (Example 4); details: Aspergillus species tested
Protocol: Aspergillus sp. was grown at 30° C. for 96 h on YM-agar. Spores and aerial mycelium was cut out from the agar, suspended in 1 ml YM-broth and dispersed with glass beads (1 mm) in a mini bead beater for 2 min. Glycerol was added to the suspension to 10% and frozen at −80° C.
Each batch of frozen stock culture was then characterized in separate growth experiments using Mueller-Hinton broth to determine the minimum amount of inoculum giving satisfactory growth after 48 h under the conditions relevant for the MIC assay. This inoculation procedure is used in order to reduce day to day variation in bioassays.
Robotic minimum inhibitory concentration (MIC) assay was performed as follows. OligoG CF-5/20 was dissolved in medium (Mueller-Hinton broth) to 1.25 times of the desired assay concentrations (2, 6 and 10%). […].
Two-fold serial dilutions of antifungal agents were made in medium with different concentrations of OligoG CF-5/20, and the solutions were placed in four parallel wells in Nunc 384-well micro plates (30 μl per well in Nunc 242757 microplates). A group of 8 wells with no addition of antifungal agents for each OligoG CF-5/20 concentration was included on each micro plate as growth reference. Each well in the 384-well assay plates was added 7.5 μl of the MH medium inoculated with frozen stock culture of the relevant strains.
The microplates were placed in plastic bags and incubated without shaking at 34° C. The optical density at 600 nm in the microwells was measured after approximately 24 and 48 hours of incubation. […]

MIC ([1]; 0% OligoG): > 32 µg/mL
MIC ([1]; 2% OligoG): > 32 µg/mL
MIC ([1]; 6% OligoG): > 32 µg/mL
MIC ([1]; 10% OligoG): 32 µg/mL (≈ 110 µM)
MIC ([2]; 0% OligoG): > 32 µg/mL
MIC ([2]; 2% OligoG): > 32 µg/mL
MIC ([2]; 6% OligoG): > 32 µg/mL
MIC ([2]; 10% OligoG): > 32 µg/mL
MIC ([4]; 0% OligoG): > 32 µg/mL
MIC ([4]; 2% OligoG): 32 µg/mL (≈ 110 µM)
MIC ([4]; 6% OligoG): > 32 µg/mL
MIC ([4]; 10% OligoG): > 32 µg/mL
MIC ([5]; 0% OligoG): > 32 µg/mL
MIC ([5]; 2% OligoG): 16 µg/mL (≈ 54.9 µM)
MIC ([5]; 6% OligoG): > 32 µg/mL
MIC ([5]; 10% OligoG): 32 µg/mL (≈ 110 µM)
MIC ([6]; 0% OligoG): > 32 µg/mL
MIC ([6]; 2% OligoG): > 32 µg/mL
MIC ([6]; 6% OligoG): > 32 µg/mL
MIC ([6]; 10% OligoG): > 32 µg/mL
MIC ([7]; 0% OligoG): > 32 µg/mL
MIC ([7]; 2% OligoG): > 32 µg/mL
MIC ([7]; 6% OligoG): > 32 µg/mL
MIC ([7]; 10% OligoG): > 32 µg/mL
MIC ([8]; 0% OligoG): > 32 µg/mL
MIC ([8]; 2% OligoG): > 32 µg/mL
MIC ([8]; 6% OligoG): > 32 µg/mL
MIC ([8]; 10% OligoG): > 32 µg/mL
MIC ([9]; 0% OligoG): 8 µg/mL (≈ 27.5 µM)
MIC ([9]; 2% OligoG): 4 µg/mL (≈ 13.7 µM)
MIC ([9]; 6% OligoG): 4 µg/mL (≈ 13.7 µM)
MIC ([9]; 10% OligoG): 2 µg/mL (≈ 6.86 µM)
MIC ([10]; 0% OligoG): > 32 µg/mL
MIC ([10]; 2% OligoG): > 32 µg/mL
MIC ([10]; 6% OligoG): > 32 µg/mL
MIC ([10]; 10% OligoG): > 32 µg/mL
MIC ([11]; 0% OligoG): > 32 µg/mL
MIC ([11]; 2% OligoG): > 32 µg/mL
MIC ([11]; 6% OligoG): > 32 µg/mL
MIC ([11]; 10% OligoG): > 32 µg/mL
effect of addition of OligoG CF-5/20 on MIC values [12]: reduction in MIC values
SMILES: CN(C/C=C/C#CC(C)(C)C)Cc1cccc2ccccc12 [Terbinafine, terbinafine]
MIC ([3]; 0% OligoG): 4 µg/mL (≈ 13.7 µM)
MIC ([3]; 2% OligoG): 4 µg/mL (≈ 13.7 µM)
MIC ([3]; 6% OligoG): 8 µg/mL (≈ 27.5 µM)
MIC ([3]; 10% OligoG): 4 µg/mL (≈ 13.7 µM)
